Experimental data taken from BindingDB's records for doi:10.1021/acsmedchemlett.0c00432 (Vanderbilt University, 2020).

Biological target: Metabotropic glutamate receptor 7 (Rattus norvegicus, UniProt P35400)
Assay: Positive allosteric modulation of rat mGlu7 receptor expressed in HEK293 cells co-expressing Gai5 assessed as potentiation of L-AP4-induced calcium mobilization preincubated for 140 secs and treated with EC20 L-AP4 for 125 secs and followed by subsequent addition of EC80 L-AP4 by Fluo-4-AM dye based fluorescence assay

Sequence of Metabotropic glutamate receptor 7 (P35400 whole entry): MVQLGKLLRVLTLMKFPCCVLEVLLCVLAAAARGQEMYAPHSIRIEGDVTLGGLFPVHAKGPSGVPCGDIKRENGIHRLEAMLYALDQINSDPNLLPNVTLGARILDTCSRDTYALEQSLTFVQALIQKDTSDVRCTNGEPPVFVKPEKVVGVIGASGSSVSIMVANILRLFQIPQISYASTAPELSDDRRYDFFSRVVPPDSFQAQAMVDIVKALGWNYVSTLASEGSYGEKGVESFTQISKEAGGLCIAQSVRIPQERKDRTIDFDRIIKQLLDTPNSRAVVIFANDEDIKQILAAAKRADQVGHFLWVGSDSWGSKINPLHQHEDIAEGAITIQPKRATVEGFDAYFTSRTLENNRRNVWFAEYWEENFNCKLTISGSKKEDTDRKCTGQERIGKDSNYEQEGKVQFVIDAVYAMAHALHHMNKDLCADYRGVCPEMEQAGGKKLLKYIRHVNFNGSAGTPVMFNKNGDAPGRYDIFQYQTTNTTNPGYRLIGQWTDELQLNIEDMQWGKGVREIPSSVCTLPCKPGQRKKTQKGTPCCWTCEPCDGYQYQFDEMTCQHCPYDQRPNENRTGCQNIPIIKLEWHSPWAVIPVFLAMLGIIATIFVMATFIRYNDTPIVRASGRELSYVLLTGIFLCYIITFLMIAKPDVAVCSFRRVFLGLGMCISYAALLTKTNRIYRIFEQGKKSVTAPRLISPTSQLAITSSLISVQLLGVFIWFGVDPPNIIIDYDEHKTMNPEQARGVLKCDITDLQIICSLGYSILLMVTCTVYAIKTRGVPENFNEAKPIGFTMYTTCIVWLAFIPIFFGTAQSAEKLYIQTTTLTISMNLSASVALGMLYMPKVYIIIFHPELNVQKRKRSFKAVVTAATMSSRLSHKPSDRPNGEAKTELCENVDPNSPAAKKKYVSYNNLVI

EC50: 1540 nM
Structure (SMILES): N#Cc1cnc2c(OC3CCOC3)cccc2c1N1CCN(c2ccccc2F)CC1 (stereo unspecified)
